Experimental data published in US6747021B2, “Cryptophycin compound” (Eli Lilly and Company, priority 2000, dated 2004).

Legend:
[1] = system: COLON ADENOCARCINOMA-26/A; assay type: in vivo, murine; conditions: IV 6.5 mg/kg/inj days 1,5,9; total dose 19.5 mg/kg; Balb/C female mice
Source text: (§1) Inhibition of tumors transplanted into mice is an accepted procedure for studying the efficacy of antitumor agents (Corbett, et al., In vivo Methods for Screening and Preclinical Testing; Use of rodent solid tumors for drug discovery., In: Anticancer Drug Development Guide: Preclinical Screening, Clinical Trials, and Approval, B. Teicher (ed), Humana Press Inc., Totowa, N.J., Chapter 5, pages 75-99 (1997); (Corbett, et al., Int. J. Pharmacog., 33, Supplement, 102-122 (1995)). Murine tumors or human xenographs were implanted essentially as described by Corbett in In vivo Methods for Screening and Preclinical Testing; Use of rodent solid tumors for drug discovery. Briefly, the murine tumor or human xenograph was implanted subcutaneously using either 12-gauge trocar implants or counted number of cells. The location for the trocar insertion is midway between the axillary and inguinal region along the side of the mouse. The trocar is slipped approximately ¾ of an inch subcutaneously up toward the axilla before discharging the tumor fragment, and pinching the skin as the trocar is removed. Alternatively, human tumor cells prepared from a […] of donor tumors (5×10^6 cells) were implanted subcutaneously in a hind-leg of a male or female nude mouse (Charles River). Either a test compound in vehicle or vehicle alone was administered by intravenous bolus injection (iv), intraperitoneal injection (ip), or oral gavage (po). Each treatment group, as well as a group of untreated control animals, consisted of five animals per group in each experiment. Subcutaneous tumor response was monitored by tumor volume measurement performed twice each week over the course of the experiment (60-120 days). Body weights were taken as a general measure of toxicity. The subcutaneous tumor data were analyzed by determining the median tumor weight for each treatment group over the course of the experiment and calculating the tumor growth delay as the difference in days for the treatment versus the control tumors to reach a volume of either 500 or 1000 mm^3.
(§2) Cryptophycin-309 (309) was tested against a variety of murine and human tumors substantially as described supra. Cryptophycin-55 glycinate (55-GLY), Taxol, and Adriamycin (Adria) were also included in certain tests for purposes of comparison. Cryptophycin 55 glycinate is known in the art (WO 98/08505, Example 9) and has the following structure: [drawing 9]
(§3) Tumor Weight(mg)=(a×b^2)/2 where a=tumor length (mm) and b=tumor width (mm).
(§4) Tumor Growth Delay=T−C where T is the median time (days) required for the treatment group tumors to reach a predetermined size, and C is the median time (days) for the control group tumors to reach the same size. Tumor-free survivors are excluded from this calculation, and are tabulated separately (Tumor Free).
(§5) Log Kill=Tumor Growth Delay/(3.32)(Td)
(§6) where Tumor Growth Delay is as previously defined and Td is tumor volume doubling time (days), estimated from the best fit straight line from a log-linear growth plot of the control group of tumors in exponential growth (100-800 mg range)
(§7) %T/C mass—The treatment and control groups are measured when the control group tumors reach approximately 700 to 1200 mg in size (median group). The median tumor weight of each group is determined (including zeros). The T/C value in percent is an indication of antitumor effectiveness. A T/C≦42% is considered significant antitumor activity. A T/C<10% is considered to indicate highly significant antitumor activity.
(§8) Body Weight Loss Nadir—A body weight loss nadir (mean of group) of greater than 20% or drug deaths greater than 20% are considered to indicate an excessively toxic dosage in single course trials.
(§9) Activity Rating—the Activity Rating is derived from the Log Kill according to the following table: […]

[2] = system: MAMMARY ADENOCARCINOMA-16/C/Adr; test: Early stage murine mammary adenocarcinoma-16/C/Adr subcutaneous tumor assay; assay type: in vivo; conditions: IV 7.5 mg/kg/inj days 1 and 7; total dose 15 mg/kg; C3H female mice
Source text: as §1, §2, §3, §4, §5, §6, §7, §8, §9

[3] = system: COLON ADENOCARCINOMA 51/A; test: Early stage murine colon adenocarcinoma 51/A subcutaneous tumor assay; assay type: in vivo; conditions: IV 6.5 mg/kg/inj days 3,6,9; total dose 19.5 mg/kg; CDF female mice
Source text: as §1, §2, §3, §4, §5, §6, §7, §8, §9

## COc1cccc2c1C(=O)c1c(O)c3c(c(O)c1C2=O)C[C@@](O)(C(=O)CO)C[C@@H]3O[C@H]1C[C@H](N)[C@H](O)[C@H](C)O1 [Adriamycin]
[1]
  % T/C MASS: 44%
  DRUG DEATHS: 0/5
  LOG KILL: None
  MEDIAN TUMOR WEIGHT: 393 mg
[2]
  DRUG DEATHS: 0/5
  LOG KILL: None
  MEDIAN TUMOR WEIGHT: 1096 mg
[3]
  % T/C MASS: 0%
  ACTIVITY RATING: +++ (2.0-2.8)
  DRUG DEATHS: 0/6
  GROWTH DELAY: 16.6 days
  LOG KILL: 2.0
  MEDIAN TUMOR WEIGHT: 0 mg
